Results taken from US20200281918A1, “CALCIUM RELEASE-ACTIVATED CALCIUM CHANNEL MODULATORS FOR TREATING HEMATOLOGICAL AND SOLID CANCERS” (Rhizen Pharmaceuticals SA, priority 2017, published 2020).

Key:
[1] = tested on: NCI-H460 human non-small cell lung tumor xenografts; experiment: NCI-H460 human non-small cell lung cancer xenograft model; type: in vivo, female Balb/c nude mice
Description: (§1) The anti-tumor effect of Compound (A) was determined as a single agent in a NCI-H460 human non-small cell lung cancer xenografts model using female Balb/c nude mice. 10^6 cells were injected into the flank region. A week after tumor cell injection, mice either received the vehicle, oral administration of Compound (A) at 30 mg/kg BID or intravenous administration of taxol at 10 mg/kg Q3D (every three days) across a 15 day period. At the end of the study period, animals were sacrificed and the tumors harvested.

A549 cells [2] = experiment: Induction of Caspase 3 (Millipore Caspase-3 kit, fluorimetric); type: cell-based; details: 48 hours, 10-10,000 nM (FIG. 1)
Description: (§2) NCH-H460, A549 and NCI-H1975 cells were incubated with desired concentrations of the test compound for 48 hours. An equal number of cells per well (0.3×10^6 cells) were used. The increase in apoptosis manifested by an elevation in caspase-3 levels was determined using a Caspase-3 kit from Millipore. Induction of Caspase 3 by Compound (A) was measured fluorimetrically.

NCH-H460 cells = experiment: as above; type: cell-based; details: 48 hours, 10-10,000 nM (FIG. 1)
Description: as §2

NCI-H1975 cells = experiment: as above; type: cell-based; details: 48 hours, 10-10,000 nM (FIG. 1)
Description: as §2

A549 cells [3] = experiment: Scratch-wound migration assay; type: cell-based; details: 10% FBS, 72 hours, 10-10,000 nM (FIG. 2)
Description: A scratch was made to a serum-starved monolayer of A549 cells followed by washing and incubation with a desired concentration of Compound (A) in media with 10% fetal bovine serum (FBS) for 72 hours. The distance between the two edges of the wound was measured and percent inhibition was calculated with respect to a control.

[4] = tested on: normal lung cell line WI-38; experiment: Anti-proliferative effect (MTT assay); type: cell-based; details: WI-38, MTT, 48-72 hours
Description: (§3) A panel of cancer cell lines representing various different types of cancers were plated in 96-well plates and incubated with desired concentrations of Compound (A) for 48-72 hours. At the end of the incubation period, MTT ((3-(4,5-dimethylthiazol-2-yl)-2,5-diphenyltetrazolium bromide)) was added. The plates were placed on a shaker for 5 minutes to mix the formazan and the optical density at 560 nm was measured using a spectrophotometer. Data were plotted using Graphpad Prism for calculation of the GI50 concentrations.

[5] = tested on: panel of cancer cell lines; experiment: Anti-proliferative effect (MTT assay); type: cell-based; details: majority of the cell lines tested, 48-72 hours, MTT (FIG. 3)
Description: as §3

769-P = experiment: Apoptosis (activated caspase-3 antibody) panel; type: cell-based
Description: (§4) An antibody to activated caspase-3 was used to label cells from early to late stage apoptosis. The concentration of Compound (A) that caused a 2-fold induction in the caspase-3 signal was determined, indicating a significant apoptosis induction.

786-O = experiment: Apoptosis (activated caspase-3 antibody) panel; type: cell-based
Description: as §4

A427 = experiment: Apoptosis (activated caspase-3 antibody) panel; type: cell-based
Description: as §4

A7 = experiment: Apoptosis (activated caspase-3 antibody) panel; type: cell-based
Description: as §4

ACHN = experiment: Apoptosis (activated caspase-3 antibody) panel; type: cell-based
Description: as §4

AGS = experiment: Apoptosis (activated caspase-3 antibody) panel; type: cell-based
Description: as §4

ARH-77 = experiment: Apoptosis (activated caspase-3 antibody) panel; type: cell-based
Description: as §4

AsPC-1 = experiment: Apoptosis (activated caspase-3 antibody) panel; type: cell-based
Description: as §4

C32 = experiment: Apoptosis (activated caspase-3 antibody) panel; type: cell-based
Description: as §4

Calu6 = experiment: Apoptosis (activated caspase-3 antibody) panel; type: cell-based
Description: as §4

DB = experiment: Apoptosis (activated caspase-3 antibody) panel; type: cell-based
Description: as §4

DOHH-2 = experiment: Apoptosis (activated caspase-3 antibody) panel; type: cell-based
Description: as §4

G-402 = experiment: Apoptosis (activated caspase-3 antibody) panel; type: cell-based
Description: as §4

HCT-116 = experiment: Apoptosis (activated caspase-3 antibody) panel; type: cell-based
Description: as §4

Hs 578T = experiment: Apoptosis (activated caspase-3 antibody) panel; type: cell-based
Description: as §4

MDA MB 231 = experiment: Apoptosis (activated caspase-3 antibody) panel; type: cell-based
Description: as §4

MDA MB 468 = experiment: Apoptosis (activated caspase-3 antibody) panel; type: cell-based
Description: as §4

NCI-H661 = experiment: Apoptosis (activated caspase-3 antibody) panel; type: cell-based
Description: as §4

PANC-1 = experiment: Apoptosis (activated caspase-3 antibody) panel; type: cell-based
Description: as §4

PC-3 = experiment: Apoptosis (activated caspase-3 antibody) panel; type: cell-based
Description: as §4

RD = experiment: Apoptosis (activated caspase-3 antibody) panel; type: cell-based
Description: as §4

RKO-AS45-1 = experiment: Apoptosis (activated caspase-3 antibody) panel; type: cell-based
Description: as §4

RKOE6 = experiment: Apoptosis (activated caspase-3 antibody) panel; type: cell-based
Description: as §4

SH-4 = experiment: Apoptosis (activated caspase-3 antibody) panel; type: cell-based
Description: as §4

SK-BR-3 = experiment: Apoptosis (activated caspase-3 antibody) panel; type: cell-based
Description: as §4

SKO-007 = experiment: Apoptosis (activated caspase-3 antibody) panel; type: cell-based
Description: as §4

SW1088 = experiment: Apoptosis (activated caspase-3 antibody) panel; type: cell-based
Description: as §4

T98G = experiment: Apoptosis (activated caspase-3 antibody) panel; type: cell-based
Description: as §4

U266B1 = experiment: Apoptosis (activated caspase-3 antibody) panel; type: cell-based
Description: as §4

Wi38 = experiment: Apoptosis (activated caspase-3 antibody) panel; type: cell-based
Description: as §4

NFkB = experiment: Western blotting of markers in Jurkat cells; type: cell-based; details: 24 hours, 10, 100, 1000 nM (FIG. 4)
Description: (§5) Cell lines were plated in RPMI media at a pre-determined density in a 6-well plate. After overnight incubation, cells were treated with Compound (A) for 24 hours. Cell lysates were analyzed for the expression of markers by Western Blotting. Gapdh, mTOR and S6 were used as a loading control for NFkB, phospho-mTOR, and phospho-S6 respectively. Lanes: A: Blank; B: 10 nM; C: 100 nM; D: 1000 nM.

phospho-S6 = experiment: Western blotting of markers in Jurkat cells; type: cell-based; details: 24 hours, 10, 100, 1000 nM (FIG. 4)
Description: as §5

phospho-mTOR = experiment: Western blotting of markers in Jurkat cells; type: cell-based; details: 24 hours, 10, 100, 1000 nM (FIG. 4)
Description: as §5

[6] = Body weight in NCI-H460 xenograft model; type: in vivo, female Balb/c nude mice; details: oral 30 mg/kg BID, 15 day period, Balb/c nude mice
Description: as §1

[7] = concentration causing 2-fold induction in caspase-3 signal

## CC(=O)O[C@H]1C(=O)[C@@]2(C)[C@H]([C@H](OC(=O)c3ccccc3)[C@]3(O)C[C@H](OC(=O)[C@H](O)[C@@H](NC(=O)c4ccccc4)c4ccccc4)C(C)=C1C3(C)C)[C@]1(OC(C)=O)CO[C@@H]1C[C@@H]2O [taxol, reference compound]
[1]; day 15, intravenous 10 mg/kg Q3D
  tumor growth inhibition (TGI) value: 36.7%

## O=C(Cc1ccc2ncccc2c1)Nc1ccc(-n2nc(C3CC3)cc2C2CC2)cc1 [Compound (A), N-(4-(3,5-dicyclopropyl-1H-pyrazol-1-yl)phenyl)-2-(quinolin-6-yl)acetamide]
A549 cells [2]
  caspase-3 induction: dose-dependent increase
NCH-H460 cells
  caspase-3 induction: dose-dependent increase
NCI-H1975 cells
  caspase-3 induction: dose-dependent increase
A549 cells [3]
  FBS induced migration of A549 cells: dose-dependent reduction
[4]
  growth of normal lung cell line WI-38: did not affect growth
[5]
  GI50: 300 to 3000 nM
769-P
  Apoptosis Emax: 10.3
  G1/S cell cycle block: 4.82 µM
769-P; [7]
  Apoptosis 2 Fold Induction: 24.71 µM
786-O
  Apoptosis Emax: 4.67
  G1/S cell cycle block: 4.4 µM
786-O; [7]
  Apoptosis 2 Fold Induction: 10.31 µM
A427
  Apoptosis Emax: 16.1
  G1/S cell cycle block: 3.52 µM
A427; [7]
  Apoptosis 2 Fold Induction: 2.77 µM
A7
  Apoptosis Emax: 55.74
  G1/S cell cycle block: 2.78 µM
A7; [7]
  Apoptosis 2 Fold Induction: 2.22 µM
ACHN
  Apoptosis Emax: 2.86
  G1/S cell cycle block: 10.3 µM
ACHN; [7]
  Apoptosis 2 Fold Induction: 11.23 µM
AGS
  Apoptosis Emax: 26.62
  G1/S cell cycle block: 3.16 µM
AGS; [7]
  Apoptosis 2 Fold Induction: 5.04 µM
ARH-77
  Apoptosis Emax: 5.36
  G1/S cell cycle block: 7.02 µM
ARH-77; [7]
  Apoptosis 2 Fold Induction: 30.74 µM
AsPC-1
  Apoptosis Emax: 2.07
  G1/S cell cycle block: 3.64 µM
C32
  Apoptosis Emax: 4.7
  G1/S cell cycle block: 10.7 µM
C32; [7]
  Apoptosis 2 Fold Induction: 80.52 µM
Calu6
  Apoptosis Emax: 3.34
  G1/S cell cycle block: 10.5 µM
Calu6; [7]
  Apoptosis 2 Fold Induction: 3.73 µM
DB
  Apoptosis Emax: 16.8
  G1/S cell cycle block: 7.03 µM
DB; [7]
  Apoptosis 2 Fold Induction: 4.08 µM
DOHH-2
  Apoptosis Emax: 6.13
  G1/S cell cycle block: 3.23 µM
DOHH-2; [7]
  Apoptosis 2 Fold Induction: 3.03 µM
G-402
  Apoptosis Emax: 5.14
  G1/S cell cycle block: 3.74 µM
G-402; [7]
  Apoptosis 2 Fold Induction: 3.11 µM
HCT-116
  Apoptosis Emax: 20.36
  G1/S cell cycle block: 1.89 µM
HCT-116; [7]
  Apoptosis 2 Fold Induction: 2.97 µM
Hs 578T
  Apoptosis Emax: 1.19
  G1/S cell cycle block: 4.56 µM
MDA MB 231
  Apoptosis Emax: 4.35
MDA MB 231; [7]
  Apoptosis 2 Fold Induction: 18.4 µM
MDA MB 468
  Apoptosis Emax: 8.86
  G1/S cell cycle block: 7.81 µM
MDA MB 468; [7]
  Apoptosis 2 Fold Induction: 3.02 µM
NCI-H661
  Apoptosis Emax: 13.23
  G1/S cell cycle block: 2.8 µM
NCI-H661; [7]
  Apoptosis 2 Fold Induction: 17.64 µM
PANC-1
  Apoptosis Emax: 11.49
  G1/S cell cycle block: 7.32 µM
PANC-1; [7]
  Apoptosis 2 Fold Induction: 8.83 µM
PC-3
  Apoptosis Emax: 12.31
  G1/S cell cycle block: 8.13 µM
PC-3; [7]
  Apoptosis 2 Fold Induction: 2.05 µM
RD
  Apoptosis Emax: 3.03
  G1/S cell cycle block: 7.08 µM
RD; [7]
  Apoptosis 2 Fold Induction: 11.45 µM
RKO-AS45-1
  Apoptosis Emax: 40.99
  G1/S cell cycle block: 3.94 µM
RKO-AS45-1; [7]
  Apoptosis 2 Fold Induction: 3.15 µM
RKOE6
  Apoptosis Emax: 14.43
  G1/S cell cycle block: 4.85 µM
RKOE6; [7]
  Apoptosis 2 Fold Induction: 4.64 µM
SH-4
  Apoptosis Emax: 72.67
  G1/S cell cycle block: 16.6 µM
SH-4; [7]
  Apoptosis 2 Fold Induction: 15.59 µM
SK-BR-3
  Apoptosis Emax: 8.32
  G1/S cell cycle block: 6.11 µM
SK-BR-3; [7]
  Apoptosis 2 Fold Induction: 11.6 µM
SKO-007
  Apoptosis Emax: 15.45
  G1/S cell cycle block: 5.2 µM
SKO-007; [7]
  Apoptosis 2 Fold Induction: 6.42 µM
SW1088
  Apoptosis Emax: 8.54
  G1/S cell cycle block: 33 µM
SW1088; [7]
  Apoptosis 2 Fold Induction: 75.51 µM
T98G
  Apoptosis Emax: 21.74
  G1/S cell cycle block: 41.3 µM
T98G; [7]
  Apoptosis 2 Fold Induction: 53.96 µM
U266B1
  Apoptosis Emax: 4.88
  G1/S cell cycle block: 3.56 µM
U266B1; [7]
  Apoptosis 2 Fold Induction: 11.11 µM
Wi38
  Apoptosis Emax: 0.49
  G1/S cell cycle block: 8.82 µM
NFkB
  NFkB expression (Western blot): dose-dependent reduction
phospho-S6
  phospho-S6 expression (Western blot): dose-dependent reduction
phospho-mTOR
  phospho-mTOR expression (Western blot): dose-dependent reduction
[1]; day 15, oral 30 mg/kg BID
  tumor growth inhibition (TGI) value: 38.3%
[1]; oral 30 mg/kg BID, 15 day period
  inhibition of tumor growth: significant inhibition of tumor growth
[6]
  mice body weight: did not affect the mice body weight
